The record followed here is patent US8114880B2, “Piperidine or piperazine substituted tetrahydro-naphthalene-1-carboxylic acid MTP inhibiting compounds” (Janssen Pharmaceutica N.V., priority 2006, dated 2012).

Chain of MTP (P55157 19-894, species assumed): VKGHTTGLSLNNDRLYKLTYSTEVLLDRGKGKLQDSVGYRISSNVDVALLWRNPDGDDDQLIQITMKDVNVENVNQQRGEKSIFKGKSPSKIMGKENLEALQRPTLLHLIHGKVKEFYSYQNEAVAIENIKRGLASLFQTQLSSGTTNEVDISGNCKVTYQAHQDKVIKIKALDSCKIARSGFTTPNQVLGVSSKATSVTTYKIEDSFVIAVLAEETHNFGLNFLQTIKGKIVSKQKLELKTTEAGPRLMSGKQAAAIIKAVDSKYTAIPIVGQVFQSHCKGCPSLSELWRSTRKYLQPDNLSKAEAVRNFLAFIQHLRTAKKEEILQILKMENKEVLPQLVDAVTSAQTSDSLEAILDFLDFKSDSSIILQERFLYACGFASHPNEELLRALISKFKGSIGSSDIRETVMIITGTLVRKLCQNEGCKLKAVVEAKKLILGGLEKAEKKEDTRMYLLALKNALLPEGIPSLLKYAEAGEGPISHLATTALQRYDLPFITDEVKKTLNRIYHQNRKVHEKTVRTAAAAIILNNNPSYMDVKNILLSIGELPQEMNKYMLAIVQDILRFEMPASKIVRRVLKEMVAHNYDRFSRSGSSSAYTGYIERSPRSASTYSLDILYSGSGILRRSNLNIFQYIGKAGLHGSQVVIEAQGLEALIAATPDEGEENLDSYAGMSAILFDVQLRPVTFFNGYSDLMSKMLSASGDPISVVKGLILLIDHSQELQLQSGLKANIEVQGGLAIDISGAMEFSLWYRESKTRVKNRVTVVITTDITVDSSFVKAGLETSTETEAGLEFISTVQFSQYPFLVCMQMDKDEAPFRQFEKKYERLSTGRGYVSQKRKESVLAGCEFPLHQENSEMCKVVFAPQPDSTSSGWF
Chain of MTP (P07237 18-508 partner, species assumed): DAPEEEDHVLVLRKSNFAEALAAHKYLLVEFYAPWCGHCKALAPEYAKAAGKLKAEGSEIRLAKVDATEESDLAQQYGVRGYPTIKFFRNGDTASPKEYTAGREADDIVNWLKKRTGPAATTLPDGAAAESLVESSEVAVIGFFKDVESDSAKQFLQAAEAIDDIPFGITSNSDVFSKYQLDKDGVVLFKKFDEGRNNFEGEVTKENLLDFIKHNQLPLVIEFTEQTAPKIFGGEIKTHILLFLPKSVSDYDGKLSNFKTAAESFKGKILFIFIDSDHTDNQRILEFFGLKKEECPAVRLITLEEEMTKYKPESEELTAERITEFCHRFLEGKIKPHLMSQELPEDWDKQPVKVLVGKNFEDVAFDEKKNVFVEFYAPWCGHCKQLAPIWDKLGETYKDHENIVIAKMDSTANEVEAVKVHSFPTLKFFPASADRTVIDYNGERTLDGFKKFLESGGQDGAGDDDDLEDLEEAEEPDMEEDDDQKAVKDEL

This experiment concerns the target MTP (Homo sapiens, UniProt P55157). Kind of experiment: MTP assay (triglyceride transfer from donor to acceptor vesicles). Format: biochemical. To be noted: MTP activity, percent triglyceride transfer from donor to acceptor vesicles, 37° C. The procedure: MTP activity was measured using an assay similar to one described by J. R. Wetterau and D. B. Zilversmit in Chemistry and Physics of Lipids, 38, 205-222 (1985). To prepare the donor and acceptor vesicles, the appropriate lipids in chloroform were put into a glass test tube and dried under a stream of nitrogen. A buffer containing 15 mM Tris-HCl pH 7.5, 1 mM EDTA, 40 mM NaCl, 0.02% NaN3 (assay buffer) was added to the dried lipid. The mixture was vortexed briefly and the lipids were then allowed to hydrate for 20 minutes on ice. Vesicles were then prepared by bath sonication (Branson 2200) at room temperature for maximum 15 minutes. Butylated hydroxytoluene was included in all vesicle preparations at a concentration of 0.1%. The lipid transfer assay mixture contained donor vesicles (40 nmol phosphatidylcholine, 7.5 mol % of cardiolipin and 0.25 mol % glycerol tri [1-^14C]-oleate), acceptor vesicles (240 nmol phosphatidylcholine) and 5 mg BSA in a total volume of 675 μl in a 1.5 ml microcentrifuge tube. Test compounds were added dissolved in DMSO (0.13% final concentration). After 5 minutes of pre-incubation at 37° C., the reaction was started by the addition of MTP in 100 μl dialysis buffer. The reaction was stopped by the addition of 400 μl DEAE-52 cellulose pre-equilibrated in 15 mM Tris-HCl pH 7.5, 1 mM EDTA, 0.02% NaN3 (1:1, vol/vol). The mixture was agitated for 4 minutes and centrifuged for 2 minutes at maximum speed in an Eppendorf centrifuge (4° C.) to pellet the DEAE-52-bound donor vesicles. An aliquot of the supernatant containing the acceptor liposomes was counted and the [^14C]-counts were used to calculate the percent triglyceride transfer from donor to acceptor vesicles.
What is called IC50 is the concentration that gives 50% inhibition. A low value points to higher potency. Compound `CCOC(=O)NCCCC[C@@H](NC(=O)[C@@]1(c2ccccc2)CC[C@H](C(=O)N2CCC(NC(=O)c3cccn(C)c3=O)CC2)c2ccccc21)C(=O)OCC` [Co. No. 239] showed an IC50 of 0.643 µM. The compound `CCOC(=O)[C@]1(c2cccc(F)c2)CC[C@@H](C(=O)N2CCC(NC(=O)c3ccccc3OC)CC2)c2cc(F)ccc21` [Co. No. 271] gave an IC50 of 0.00294 µM. Compound `CCOC(=O)[C@H]1CCCN1C(=O)[C@@]1(c2ccccc2)CC[C@H](C(=O)N2CCC(NC(=O)c3ccccc3OC)CC2)c2ccccc21` [Co. No. 77] had an IC50 of 0.217 µM. In turn, `CC(C)[C@@H](NC(=O)[C@@]1(c2ccccc2)CC[C@H](C(=O)N2CCC(NC(=O)c3cccn(C)c3=O)CC2)c2ccccc21)C(=O)OC(C)(C)C` [Co. No. 166] gave a half-maximal inhibitory concentration (IC50) of 0.755 µM.

`CC(C)[C@H](NC(=O)[C@@]1(c2ccccc2)CC[C@H](C(=O)N2CCC(NC(=O)c3cccn(C)c3=O)CC2)c2ccccc21)C(=O)OC(C)(C)C` [Co. No. 165] had an IC50 of 0.506 µM. Under `Cn1cccc(C(=O)NC2CCN(C(=O)[C@H]3CC[C@@](C(=O)N[C@H](C(=O)O)c4ccccc4)(c4ccccc4)c4ccccc43)CC2)c1=O` [Co. No. 194] stands > 10 µM; under `CCOC(=O)[C@H](CCCCNC(C)=O)NC(=O)[C@@]1(c2ccccc2)CC[C@H](C(=O)N2CCC(NC(=O)c3ccccc3OC)CC2)c2ccccc21` [Co. No. 131], 0.0456 µM. Under `COc1ccccc1C(=O)NC1CCN(C(=O)[C@H]2CC[C@@](C(=O)N[C@@H](Cc3ccc(O)cc3)C(=O)OC(C)(C)C)(c3ccccc3)c3ccccc32)CC1` [Co. No. 113] stands 0.163 µM; under `COc1ccccc1C(=O)NC1CCN(C(=O)[C@H]2CC[C@@](C(=O)N[C@@H](Cc3c[nH]c4ccccc34)C(=O)O)(c3ccccc3)c3ccccc32)CC1` [Co. No. 127], > 10 µM.

On to `COc1ccccc1C(=O)NC1CCN(C(=O)[C@H]2CC[C@@](C(=O)N[C@@H](C)C(=O)O)(c3ccccc3)c3ccccc32)CC1` [Co. No. 116], for which the IC50 was 8.41 µM. The compound `COC(=O)[C@]1(c2ccccc2)CC[C@@H](C(=O)N2CCC(NC(=O)c3ccccc3OC)CC2)c2ccccc21` [Co. No. 60] gave an IC50 of 0.00251 µM. As to `Cn1cccc(C(=O)NC2CCN(C(=O)[C@H]3CC[C@@](C(=O)N[C@@H](C(=O)O)c4ccccc4)(c4ccccc4)c4ccccc43)CC2)c1=O` [Co. No. 193], the IC50 was > 10 µM. Under `C[C@@H](NC(=O)[C@@]1(c2ccccc2)CC[C@H](C(=O)N2CCC(NC(=O)c3cccn(C)c3=O)CC2)c2ccccc21)C(=O)O` [Co. No. 184] stands > 10 µM; under `COc1ccccc1C(=O)NC1CCN(C(=O)[C@H]2CC[C@@](C(=O)N[C@@H](CC(N)=O)C(=O)OC(C)(C)C)(c3ccccc3)c3ccccc32)CC1` [Co. No. 115], 0.301 µM. Regarding `Cn1cccc(C(=O)NC2CCN(C(=O)[C@H]3CC[C@@](C(=O)N[C@@H](CC(N)=O)C(=O)OC(C)(C)C)(c4ccccc4)c4ccccc43)CC2)c1=O` [Co. No. 181], the IC50 is > 10 µM. Take `COC(=O)CCCCCNC(=O)[C@@]1(c2ccccc2)CC[C@H](C(=O)N2CCC(NC(=O)c3cccn(C)c3=O)CC2)c2ccccc21` [Co. No. 228]: inhibition was half-maximal at 0.307 µM (IC50). As for `Cn1cccc(C(=O)NC2CCN(C(=O)[C@H]3CC[C@@](C(=O)NCC(=O)O)(c4ccccc4)c4ccccc43)CC2)c1=O` [Co. No. 182], the figure is > 10 µM; as for `Cn1cccc(C(=O)NC2CCN(C(=O)[C@H]3CC[C@@](C(=O)N4CCC[C@@H]4C(=O)OC(C)(C)C)(c4ccccc4)c4ccccc43)CC2)c1=O` [Co. No. 174], 2.73 µM; as for `COC(=O)[C@@H]1C[C@@H](O)CN1C(=O)[C@@]1(c2ccccc2)CC[C@H](C(=O)N2CCC(NC(=O)c3ccccc3OC)CC2)c2ccccc21` [Co. No. 78], 3.82 µM.

For the compound `CCOC(=O)CN(C)C(=O)[C@@]1(c2ccccc2)CC[C@H](C(=O)N2CCC(NC(=O)c3cccn(C)c3=O)CC2)c2ccccc21` [Co. No. 137], the IC50 is 0.474 µM.
